From PubChem BioAssay AID330 (DTP/NCI, 2004)
Values joined by “and” are separate entries in the source; they are usually repeats but may differ in a detail not shown here. Equal entries are not always repeated. Toxic doses and inconclusive results are not listed.

Tested on: P388 leukemia ip, CD2F1 mice, survival T/C
Experiment: NCI In Vivo Anticancer Drug Screen. Data for tumor model P388 Leukemia (intraperitoneal) in CD2F1 (CDF1) mice
Conditions: endpoint: median survival time, higher = longer survival
Summary of the method: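 Mice carrying the transplanted tumor received test compound or vehicle. Survival was recorded in each group, and the value is the treated-group measurement divided by that of the vehicle-treated control group.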

[1] = dose: 50.0 mg/kg/injection, schedule: Q01DX005 (ip), vehicle: Klucel (hydroxypropylcellulose) (HPC)
[2] = dose: 100.0 mg/kg/injection, schedule: Q01DX005 (ip), vehicle: Klucel (hydroxypropylcellulose) (HPC)
[3] = dose: 200.0 mg/kg/injection, schedule: Q01DX005 (ip), vehicle: Klucel (hydroxypropylcellulose) (HPC)
[4] = dose: 12.5 mg/kg/injection, schedule: Q01DX009 (ip), vehicle: saline
[5] = dose: 25.0 mg/kg/injection, schedule: Q01DX009 (ip), vehicle: saline
[6] = dose: 50.0 mg/kg/injection, schedule: Q01DX009 (ip), vehicle: saline
[7] = dose: 100.0 mg/kg/injection, schedule: Q01DX001 (ip), vehicle: Klucel (hydroxypropylcellulose) (HPC)
[8] = dose: 200.0 mg/kg/injection, schedule: Q01DX001 (ip), vehicle: Klucel (hydroxypropylcellulose) (HPC)
[9] = dose: 50.0 mg/kg/injection, schedule: Q01DX009 (ip), vehicle: saline with Tween-80
[10] = dose: 100.0 mg/kg/injection, schedule: Q01DX009 (ip), vehicle: saline with Tween-80
[11] = dose: 200.0 mg/kg/injection, schedule: Q01DX009 (ip), vehicle: saline with Tween-80

COC(=O)[C@@]12OC[C@]34[C@H]([C@@H](O)[C@@H]1O)[C@@]1(C)CC(=O)C(O)=C(C)[C@@H]1C[C@H]3OC(=O)[C@H](OC(=O)/C=C(\C)C(C)CO)[C@@H]24 (stereo partly drawn)
T/C (dose: 0.5 mg/kg/injection, schedule: Q01DX009 (ip), vehicle: saline + alcohol): 115 % of control

COc1ccc(N/N=C(/c2ccccc2)c2noc(-c3ccccc3)n2)cc1
T/C [1]: 101 % of control | T/C [2]: 94 % of control | T/C [3]: 93 % of control

CCC1(O)C(=O)OCc2c1cc1n(c2=O)Cc2cc3ccccc3nc2-1 (stereo not drawn)
T/C (dose: 2.0 mg/kg/injection, schedule: Q04DX003 (ip), vehicle: other): 150 % of control and 153 % of control | T/C (dose: 4.0 mg/kg/injection, schedule: Q04DX003 (ip), vehicle: other): 167 % of control and 178 % of control | T/C (dose: 8.0 mg/kg/injection, schedule: Q04DX003 (ip), vehicle: other): 222 % of control and 229 % of control | T/C (dose: 16.0 mg/kg/injection, schedule: Q04DX003 (ip), vehicle: other): 118 % of control

CC(=O)N(C)N
T/C (dose: 60.0 mg/kg/injection, schedule: Q01DX005 (ip), vehicle: saline): 107 % of control | T/C (dose: 120.0 mg/kg/injection, schedule: Q01DX005 (ip), vehicle: saline): 102 % of control | T/C (dose: 240.0 mg/kg/injection, schedule: Q01DX005 (ip), vehicle: saline): 93 % of control

Cc1nc(C)n2c(C)nnc2c1C
T/C (dose: 25.0 mg/kg/injection, schedule: Q04DX003 (ip), vehicle: saline): 101 % of control | T/C (dose: 50.0 mg/kg/injection, schedule: Q04DX003 (ip), vehicle: saline): 111 % of control | T/C (dose: 100.0 mg/kg/injection, schedule: Q04DX003 (ip), vehicle: saline): 109 % of control

CCCCCCCCCCCCC[N+]1([O-])CCOCC1
T/C [4]: 101 % of control | T/C [5]: 100 % of control | T/C [6]: 89 % of control and 96 % of control

COc1cccc(C2c3cc4c(cc3OC(N3CCCC3)C2C)OCO4)c1O (stereo not drawn)
T/C (dose: 60.0 mg/kg/injection, schedule: Q01DX005 (ip), vehicle: saline with Tween-80): 103 % of control | T/C (dose: 120.0 mg/kg/injection, schedule: Q01DX005 (ip), vehicle: saline with Tween-80): 90 % of control | T/C (dose: 240.0 mg/kg/injection, schedule: Q01DX005 (ip), vehicle: saline with Tween-80): 88 % of control

Cc1nc2n(c1/C=N/O)CCS2
T/C (dose: 50.0 mg/kg/injection, schedule: Q01DX001 (ip), vehicle: Klucel (hydroxypropylcellulose) (HPC)): 90 % of control | T/C [7]: 99 % of control | T/C [8]: 93 % of control

COc1cccc2c1C(=O)c1c(O)c3c(c(O)c1C2=O)C[C@@](O)(/C(CO)=N/NC(=O)c1ccc(Cl)c(Cl)c1)C[C@@H]3OC1CC(NC(=S)Nc2ccc(F)cc2)C(O)C(C)O1 (stereo partly drawn)
T/C (dose: 0.1 mg/kg/injection, schedule: Q01DX009 (ip), vehicle: water): 99 % of control | T/C (dose: 0.2 mg/kg/injection, schedule: Q01DX009 (ip), vehicle: water): 113 % of control | T/C (dose: 0.4 mg/kg/injection, schedule: Q01DX009 (ip), vehicle: water): 109 % of control | T/C (dose: 0.8 mg/kg/injection, schedule: Q01DX009 (ip), vehicle: water): 111 % of control | T/C (dose: 12.5 mg/kg/injection, schedule: Q01DX009 (ip), vehicle: water): 94 % of control | T/C (dose: 25.0 mg/kg/injection, schedule: Q01DX009 (ip), vehicle: water): 91 % of control and 94 % of control | T/C (dose: 50.0 mg/kg/injection, schedule: Q01DX009 (ip), vehicle: water): 91 % of control | T/C (dose: 100.0 mg/kg/injection, schedule: Q01DX009 (ip), vehicle: water): 92 % of control

Nc1c[nH]ccc1=O
T/C (dose: 100.0 mg/kg/injection, schedule: Q01DX009 (ip), vehicle: saline): 102 % of control | T/C (dose: 200.0 mg/kg/injection, schedule: Q01DX009 (ip), vehicle: saline): 100 % of control | T/C (dose: 400.0 mg/kg/injection, schedule: Q01DX009 (ip), vehicle: saline): 99 % of control

Nc1ncnc2c1nc(N)n2C1OC(CO)C(O)C1O (stereo not drawn)
T/C (dose: 6.0 mg/kg/injection, schedule: Q01DX005 (ip), vehicle: saline): 122 % of control | T/C (dose: 25.0 mg/kg/injection, schedule: Q01DX005 (ip), vehicle: saline): 119 % of control

c1ccc(-c2nsc3ccccc23)cc1
T/C [1]: 99 % of control | T/C [2]: 106 % of control | T/C [3]: 101 % of control

CC(=O)OC(OC(C)=O)c1cc(Cl)c(C(OC(C)=O)OC(C)=O)cc1Cl
T/C (dose: 60.0 mg/kg/injection, schedule: Q01DX005 (ip), vehicle: Klucel (hydroxypropylcellulose) (HPC)): 107 % of control | T/C (dose: 120.0 mg/kg/injection, schedule: Q01DX005 (ip), vehicle: Klucel (hydroxypropylcellulose) (HPC)): 106 % of control | T/C (dose: 240.0 mg/kg/injection, schedule: Q01DX005 (ip), vehicle: Klucel (hydroxypropylcellulose) (HPC)): 103 % of control

O=C(NCCCC1NC(=O)/C(=C(O)/C=C/C2CCCCC2)C1=O)OCc1ccccc1 (stereo not drawn)
T/C (dose: 50.0 mg/kg/injection, schedule: Q01DX005 (ip), vehicle: saline with Tween-80): 100 % of control | T/C (dose: 100.0 mg/kg/injection, schedule: Q01DX005 (ip), vehicle: saline with Tween-80): 95 % of control | T/C (dose: 200.0 mg/kg/injection, schedule: Q01DX005 (ip), vehicle: saline with Tween-80): 100 % of control

NC(=O)c1c(Cl)nc2sccn12
T/C (dose: 25.0 mg/kg/injection, schedule: Q01DX001 (ip), vehicle: saline with Tween-80): 107 % of control | T/C (dose: 50.0 mg/kg/injection, schedule: Q01DX001 (ip), vehicle: saline with Tween-80): 104 % of control | T/C (dose: 100.0 mg/kg/injection, schedule: Q01DX001 (ip), vehicle: saline with Tween-80): 101 % of control and 112 % of control

CCOc1ccc2c(ccc(/C=C\c3cc(C)c4cccnc4c3O)[n+]2C)c1
T/C (dose: 3.13 mg/kg/injection, schedule: Q01DX009 (ip), vehicle: saline with Tween-80): 121 % of control | T/C (dose: 6.25 mg/kg/injection, schedule: Q01DX009 (ip), vehicle: saline with Tween-80): 121 % of control

CC(CCOc1ccc2ccc(=O)oc2c1)C1=CC(=O)C(C)(C)O1 (stereo not drawn)
T/C (dose: 12.5 mg/kg/injection, schedule: Q01DX009 (ip), vehicle: saline with Tween-80): 103 % of control | T/C (dose: 25.0 mg/kg/injection, schedule: Q01DX009 (ip), vehicle: saline with Tween-80): 90 % of control | T/C [9]: 116 % of control | T/C [10]: 116 % of control

CCN(CC)Cc1cc(Nc2cc(Cl)c3ccc(N(C)C)cc3n2)ccc1O
T/C [4]: 110 % of control | T/C [5]: 110 % of control | T/C [6]: 109 % of control and 110 % of control

O=C(/C=C/c1ccc(Cl)cc1)c1ccccc1
T/C [9]: 105 % of control | T/C [10]: 103 % of control | T/C [11]: 92 % of control

Nc1cc2[nH]cnc2c(=O)[nH]1
T/C (dose: 6.25 mg/kg/injection, schedule: Q01DX009 (ip), vehicle: suspension in saline): 109 % of control and 95 % of control | T/C (dose: 12.5 mg/kg/injection, schedule: Q01DX009 (ip), vehicle: suspension in saline): 101 % of control and 113 % of control and 97 % of control | T/C (dose: 25.0 mg/kg/injection, schedule: Q01DX009 (ip), vehicle: Klucel (hydroxypropylcellulose) (HPC)): 100 % of control | T/C (dose: 25.0 mg/kg/injection, schedule: Q01DX009 (ip), vehicle: suspension in saline): 103 % of control and 107 % of control and 96 % of control | T/C (dose: 50.0 mg/kg/injection, schedule: Q01DX009 (ip), vehicle: Klucel (hydroxypropylcellulose) (HPC)): 108 % of control | T/C (dose: 100.0 mg/kg/injection, schedule: Q01DX009 (ip), vehicle: suspension in saline): 99 % of control and 113 % of control | T/C (dose: 200.0 mg/kg/injection, schedule: Q01DX009 (ip), vehicle: Klucel (hydroxypropylcellulose) (HPC)): 100 % of control | T/C [11]: 95 % of control | T/C (dose: 200.0 mg/kg/injection, schedule: Q01DX009 (ip), vehicle: suspension in saline): 86 % of control and 87 % of control

NC(C(=O)O)C(CC(=O)O)c1ccncc1 (stereo not drawn)
T/C (dose: 100.0 mg/kg/injection, schedule: Q04DX003 (ip), vehicle: saline with Tween-80): 96 % of control | T/C (dose: 200.0 mg/kg/injection, schedule: Q04DX003 (ip), vehicle: saline with Tween-80): 89 % of control | T/C (dose: 400.0 mg/kg/injection, schedule: Q04DX003 (ip), vehicle: saline with Tween-80): 98 % of control

COc1ccc(N=c2nc3n4c(c(Cl)cc(Cl)c4n2)NC(C(Cl)(Cl)Cl)=N3)cc1
T/C (dose: 60.0 mg/kg/injection, schedule: Q01DX005 (ip), vehicle: Klucel + Tween-80): 93 % of control | T/C (dose: 120.0 mg/kg/injection, schedule: Q01DX005 (ip), vehicle: Klucel + Tween-80): 92 % of control | T/C (dose: 240.0 mg/kg/injection, schedule: Q01DX005 (ip), vehicle: Klucel + Tween-80): 96 % of control

CCOC(=O)CN=NNc1ccccc1C(=O)CC
T/C [7]: 98 % of control | T/C [8]: 100 % of control | T/C (dose: 400.0 mg/kg/injection, schedule: Q01DX001 (ip), vehicle: Klucel (hydroxypropylcellulose) (HPC)): 100 % of control
